Data on seven compounds can be found in PMC10193894 (Journal of Enzyme Inhibition and Medicinal Chemistry, 2023).

“Also recorded” adds a separate entry of the source. Where two headings read alike, the source gives them in different places. Ends that are not written are not given here.

The target of one test is SARS-CoV-2 S-RBD (Severe acute respiratory syndrome coronavirus 2, UniProt P0DTC2). Briefly: biochemical. Type of test: binding.
The test system of a further test is SARS-CoV-2 pseudovirus. Conditions: for inhibition rate on pseudotyped SARS-CoV-2 infection: 3.2 µM.
Test [1] concerns the target T1, NRP1-BD (the b1 domain of NRP1) (Homo sapiens, UniProt O14786).
T1 construct: NRP1-BD (the b1 domain of NRP1); purchased Abcam (Cambridge, MA, USA)
T1 sequence (O14786 275-424 limits assumed): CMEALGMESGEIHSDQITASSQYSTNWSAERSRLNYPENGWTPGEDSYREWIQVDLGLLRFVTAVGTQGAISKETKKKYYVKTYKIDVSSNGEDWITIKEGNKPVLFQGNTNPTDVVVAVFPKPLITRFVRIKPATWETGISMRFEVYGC
The test is described as follows: Microscale thermophoresis (MST) binding to NRP1-BD. To be noted: mean ± SD (n = 3). For orientation: MST reads how a fluorescent partner responds to local heating, with and without ligand.

Setting [2] is: read-out: EC50 against pseudotyped SARS-CoV-2 infection.

With “Ac-ETQVLLDKLNHEAEDLKYQSALASHRVRRPPR [RN-5]”, the dissociation constant Kd on SARS-CoV-2 S-RBD came out at 207 ± 4.5 nM. The midpoint of the response in the test with SARS-CoV-2 pseudovirus (pseudovirus, 48 h), the EC50, lay at 3720 ± 890 nM.

For the compound `C[C@@]1(C(=O)O)CC[C@]2(C)CC[C@]3(C)C4=CC(=O)c5c(cc(O)c(O)c5C=O)[C@]4(C)CC[C@@]3(C)[C@@H]2C1` [T-96, demethylzeylasteral], the Kd at SARS-CoV-2 S-RBD (read-out: S-RBD Kd) was determined as 998.6 ± 8.4 nM. Further, the “NRP1-BD Kd” value in test [1] is “no binding; also recorded: without binding”. The “inhibition rate on pseudotyped SARS-CoV-2 infection” value in the test with SARS-CoV-2 pseudovirus was “about 40%”. In addition, in the test with SARS-CoV-2 pseudovirus (setting [2]), the concentration for a half-maximal effect (EC50) came out at 5420 nM.

For the compound `NC(N)=NCCC[C@H](NC(=O)c1sccc1NS(=O)(=O)c1cccc2nsnc12)C(=O)O` [EG00229], the “S-RBD Kd” value on SARS-CoV-2 S-RBD is “no binding; also recorded: without binding”. Also, in test [1] (value in μM), the Kd came out at 4.9 ± 0.7 µM. Moreover, the “inhibition rate on pseudotyped SARS-CoV-2 infection” value in the test on SARS-CoV-2 pseudovirus is on record as 15%. Further, the EC50 with SARS-CoV-2 pseudovirus (setting [2]) was over 20000 nM.

Take “Ac-QNKVYIDKYNHEAQDLFYQSALKAHRGNRRAR [RN-1]”: binding on SARS-CoV-2 S-RBD was put at a Kd of 19.9 ± 1.4 nM. The compound also showed an EC50 in the test on SARS-CoV-2 pseudovirus (pseudovirus, 48 h) of 1980 ± 370 nM.

As to “Ac-EKSTLKDRFNHEAQDLKYQDSLASYRGKRPPR [RN-2]”, at SARS-CoV-2 S-RBD, binding was characterised by a dissociation constant (Kd) of 65.3 ± 2.2 nM. Besides, a half-maximal response with SARS-CoV-2 pseudovirus (pseudovirus, 48 h) (EC50) required 2370 ± 420 nM.

On SARS-CoV-2 S-RBD, “Ac-QRNIYLDRHNHEAEDLKYQTALASFRPAKPAR [RN-3]” registered a dissociation constant Kd of 95.3 ± 2.9 nM. For the same compound, in the test on SARS-CoV-2 pseudovirus (pseudovirus, 48 h), the EC50 was 2870 ± 180 nM.

For “Ac-EARTFLDKYNHEAEDLYYQSSLASWGSPRRAR [RN-4]”, the dissociation constant Kd on SARS-CoV-2 S-RBD was 7.4 ± 0.5 nM. Further, the EC50 in the test on SARS-CoV-2 pseudovirus (pseudovirus, 48 h) turned out to be 390 ± 90 nM.

As usually defined, the Kd is the free concentration of one partner at which half of the binding sites on the other are occupied at equilibrium, for simple one-to-one binding. As usually defined, the EC50 is the midpoint of the concentration-response curve.
